Entries after “also recorded” stand apart in the source; their conditions may differ.
Tests used:
[1] = tested on: breast cancer molecular subtypes I-VI; experiment: Metastasis-free and overall survival of breast cancer patients treated with CMF or CAF adjuvant chemotherapy, compared in each molecular subtype (log-rank test); type: in vivo, human; settings: for sensitivity / response of the breast cancer subtype to the drug or regimen: molecular subtype IV breast cancer, inferred from CMF vs CAF survival
From the text: Patients who had been diagnosed, treated and followed for breast cancer progression between 1991 and 2003 at the Koo Foundation Sun Yat-Sen Cancer Center (KFSYSCC), and had their fresh breast cancer tissue frozen in liquid nitrogen at the institutional tumor bank were identified. […] The study was approved by the institutional review board. Samples deposited in the tumor bank were randomly selected. A total of 447 cases were available. Samples of insufficient RNA (n=1), poor RNA quality (n=116) or unacceptable microarray quality (n=18) were excluded from the study, leaving 312 random samples available (Cohort-1). Gene expression profiles of 15 additional lobular carcinomas of breast collected between 1999 and 2004 were also included in the study (Cohort 2). Thus, the total number of samples was 327.
All statistical analyses were conducted using SAS/STAT software (ver. 9.1.3) (SAS Institute, Inc.) and R software package (v2.6) from Bioconductor. Fisher's exact test was conducted to determine statistical correlation between molecular subtypes and various clinical phenotypes. The exact p values were estimated by Monte Carlo simulation. Log-rank test was used to analyze survival differences between different molecular subtypes or treatment groups.
The breast cancer samples used in this study were collected over a period of more than 10 years. The period covered a major shift of chemotherapy regimen from CMF (cyclophosphamide-methotrexate-fluorouracil) therapy to CAF (cyclophosphamide-adriamycin-fluorouracil) therapy around 1997 and 1998. The cohorts in this study offered a precious opportunity to investigate how different molecular subtypes of breast cancer responded differently to this change of adjuvant chemotherapy regimen.
Metastasis-free and overall survival were compared for patients treated with CMF and CAF for adjuvant therapy in each molecular subtype. […] Nevertheless, the CAF group had more N stage=1 patients and the CMF group had more N stage=0 patients (Table 15b).

tumors = settings: TNP-470 below maximum tolerated dose plus cyclophosphamide 170 mg/kg, every 6 days, in combination; cited from earlier work

SMILES	sensitivity / response of the breast cancer subtype to the drug or regimen [1]	treatment results (metastasis-free and overall survival), CAF vs CMF adjuvant chemotherapy ([1]; molecular subtype IV breast cancer patients, adjuvant chemotherapy after surgery)	tumor response to the treatment regimen (tumors)
CN(Cc1cnc2nc(N)nc(N)c2n1)c1ccc(C(=O)N[C@@H](CCC(=O)O)C(=O)O)cc1 [methotrexate]	relatively insensitive	–	–
COc1cccc2c1C(=O)c1c(O)c3c(c(O)c1C2=O)C[C@@](O)(C(=O)CO)C[C@@H]3O[C@H]1C[C@H](N)[C@H](O)[C@H](C)O1 [adriamycin, doxorubicin]	very sensitive	dramatic impact; also recorded: significantly improved	–
CO[C@@H]1[C@H](OC(=O)NC(=O)CCl)CC[C@]2(CO2)[C@H]1[C@@]1(C)O[C@@H]1CC=C(C)C [TNP-470]	–	–	complete regression
O=P1(N(CCCl)CCCl)NCCCO1 (centres unmarked) [cyclophosphamide]	–	–	complete regression
